In ChEMBL document CHEMBL3632572, “Adenosine/guanosine preferring nucleoside ribohydrolase is a distinct, druggable antitrichomonal target” (Bioorg Med Chem Lett, 2015):
The source made the active and inactive calls. The calls are words filed in the database; no cut-off is given here.

Legend:
[1] = Inhibition of Trichomonas vaginalis adenosine-guanosine preferring ribohydrolase after 40 mins
[2] = Inhibition of Trichomonas vaginalis adenosine-guanosine preferring ribohydrolase after 40 mins in presence of 0.01% triton X-100
Trichomonas vaginalis = experiment: Inhibition of Trichomonas vaginalis uridine ribohydrolase after 40 mins

IC50 [1] [µM]	IC50 [2] [µM]	inhibition (Trichomonas vaginalis)	Compound
5.9	12.5	inactive	O=C1c2c(O)cc(O)cc2OC(c2ccc(O)c(O)c2)C1O (racemic) [TAXIFOLIN]
10.4		inactive	COc1ccccc1OCCNCC(O)COc1cccc2[nH]c3ccccc3c12 (stereo not drawn) [CARVEDILOL]
10.2	17.3	inactive	C[C@@H]1O[C@@H](OC[C@H]2O[C@@H](Oc3c(-c4ccc(O)c(O)c4)oc4cc(O)cc(O)c4c3=O)[C@H](O)[C@@H](O)[C@@H]2O)[C@H](O)[C@H](O)[C@H]1O [RUTIN]
1.8	3.5	inactive	Cc1ccc(NC(=O)c2ccc(CN3CCN(C)CC3)cc2)cc1Nc1nccc(-c2cccnc2)n1 [IMATINIB]
0.3	0.9	inactive	O=c1c(O[C@@H]2O[C@H](CO)[C@@H](O)[C@H](O)[C@H]2O)c(-c2ccc(O)c(O)c2)oc2cc(O)cc(O)c12 [ISOQUERCETIN]
9.8	11.7	inactive	OC[C@H]1O[C@@H](n2cnc3c(NC4CCCC4)nc(Cl)nc32)[C@H](O)[C@@H]1O
9.3	34.2	inactive	O=C1c2c(O)cc(O)cc2O[C@H](c2ccc(O)c(O)c2)[C@H]1O [(+)-TAXIFOLIN]
2.2	4	inactive	O=c1c(O[C@@H]2O[C@H](CO)[C@H](O)[C@H](O)[C@H]2O)c(-c2ccc(O)c(O)c2)oc2cc(O)cc(O)c12 [HYPEROSIDE]
